Reference: ChEMBL document CHEMBL1134865, “Antimalarial compounds from Parinari capensis” (Bioorg Med Chem Lett, 2002)
≈ marks a conversion by molar mass, not a printed value.

Key:
[1] = Compound was evaluated for toxicity on Human kidney epithelial (Graham cells) at a dose of 100 ug/mL; assay type: cell-based
[2] = Compound was evaluated for its antimalarial activity in vitro on Plasmodium falciparum; assay type: functional
[3] = Compound was evaluated for toxicity on Human kidney epithelial (Graham cells) at a dose of 100 ug/mL; Not toxic; assay type: cell-based

| SMILES | IC50 [1] [µg/mL] | IC50 [2] [µg/mL] | IC50 [3] |
| --- | --- | --- | --- |
| C=C1C(=O)[C@@]23CCC4[C@@]5(C)CCC[C@@]4(OC5=O)[C@@]2(C)CC[C@]1(O)C3 (stereo not given in full) | 1.73 (≈ 5.24 µM) | 0.54 (≈ 1.63 µM) | – |
| C=C1C(=O)[C@@]23CC[C@@H]4[C@@]5(C)CCC[C@@]4(OC5=O)[C@@]2(C)CC[C@]1(OC)C3 | 1.13 (≈ 3.28 µM) | 0.67 (≈ 1.95 µM) | – |
| C=C1C(=O)[C@@]23CCC4[C@@]5(C)CCC[C@@]4(OC5=O)[C@@]2(C)CC[C@@H]1C3 (stereo not given in full) | 3.01 (≈ 9.57 µM) | 1.57 (≈ 4.99 µM) | – |
| CCN(CC)CCCC(C)Nc1ccnc2cc(Cl)ccc12 (stereo not given) [CHLOROQUINE] | – | 0.04 (≈ 0.125 µM) | Non-toxic |
| C=C[C@H]1CN2CC[C@H]1C[C@H]2[C@H](O)c1ccnc2ccc(OC)cc12 [QUININE] | – | 0.17 (≈ 0.524 µM) | Non-toxic |
